In ChEMBL document CHEMBL5360621, “Discovery and Optimization of a STING Agonist Platform for Application in Antibody Drug Conjugates” (J Med Chem, 2023) one finds EC50 data, which are given here for 25 compounds.

SMILES strings stand for the structures.

The target of this assay is Stimulator of interferon genes protein (Homo sapiens, UniProt Q86WV6). Description: Agonist activity at STING in digitonin-permeabilized human THP1-Dual cells expressing NF-kappaB-SEAP and IRF-Lucia luciferase reporter assessed as increase in IRF-luciferase activation incubated for 24 hrs by QUANTI-Luc assay. The format is cell-based. In general terms: In a reporter assay the amount or activity of a reporter protein is the signal.
Chain of Stimulator of interferon genes protein (Q86WV6 whole entry): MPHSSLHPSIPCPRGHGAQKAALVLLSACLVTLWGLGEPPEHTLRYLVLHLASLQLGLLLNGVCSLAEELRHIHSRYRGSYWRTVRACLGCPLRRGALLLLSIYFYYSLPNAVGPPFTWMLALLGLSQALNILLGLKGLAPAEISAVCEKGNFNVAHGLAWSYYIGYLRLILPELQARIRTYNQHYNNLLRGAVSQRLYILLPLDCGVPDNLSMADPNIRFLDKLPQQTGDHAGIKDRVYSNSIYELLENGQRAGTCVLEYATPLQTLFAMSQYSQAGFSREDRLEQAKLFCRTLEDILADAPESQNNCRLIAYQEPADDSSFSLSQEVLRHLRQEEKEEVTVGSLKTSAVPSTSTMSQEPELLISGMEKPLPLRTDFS
On to `CCn1nc(C)cc1C(=O)/N=c1\sc2cc(C(N)=O)cc(OC)c2n1C/C=C/Cn1c(NC(=O)c2cc(C)nn2CC)nc2cc(C(N)=O)cc(OCCCO)c21`, for which the EC50 – broadly, the concentration needed to bring the measured effect to its halfway point – turned out to be 0.005 µM.
Regarding `CCc1nc(C)oc1C(=O)/N=c1\sc2cc(C(N)=O)cc(OCCCO)c2n1C/C=C/Cn1c(NC(=O)c2oc(C)nc2CC)nc2cc(C(N)=O)cnc21`, the EC50 was 0.15 µM.
The result for `COc1cc(C(N)=O)cc2nc(NC(=O)c3cnc(C)n3C)n(C/C=C/Cn3c(NC(=O)c4cnc(C)n4C)nc4cc(C(N)=O)cc(OCCCO)c43)c12` reads greater than 100 µM; that for `COc1cc(C(N)=O)cc2nc(NC(=O)c3nc(C)oc3C)n(C/C=C/Cn3c(NC(=O)c4nc(C)oc4C)nc4cc(C(N)=O)cc(OCCCO)c43)c12`, greater than 100 µM; that for `CCc1nc(C)oc1C(=O)Nc1nc2cc(C(N)=O)cc(OCCCO)c2n1C/C=C/Cn1c(NC(=O)c2cc(C)nn2CC)nc2cc(C(N)=O)cc(OC)c21`, 0.001 µM.
The result for `CCn1nc(C)cc1C(=O)Nc1nc2cc(C(N)=O)cc(OC)c2n1C/C=C/Cn1c(NC(=O)c2cc(C)nn2CC)nc2cc(C(N)=O)cc(OCCCN)c21` reads 0.01 µM; that for `CCn1nc(C)cc1C(=O)/N=c1\sc2cc(C(N)=O)cc(OC)c2n1C/C=C/Cn1c(NC(=O)c2oc(C)nc2C)nc2cc(C(N)=O)cc(OCCCO)c21`, greater than 100 µM; that for `CCn1nc(C)cc1C(=O)Nc1nc2cc(C(N)=O)cnc2n1C/C=C/Cn1c(NC(=O)c2cc(C)nn2CC)nc2cc(C(N)=O)cc(OCCCO)c21`, 0.06 µM.
`CCc1nc(C)oc1C(=O)Nc1nc2cc(C(N)=O)cc(OC)c2n1C/C=C/Cn1c(NC(=O)c2cc(C)nn2CC)nc2cc(C(N)=O)cc(OCCCO)c21`: the EC50 was 0.009 µM.
The result for `CCc1nc(C)oc1C(=O)Nc1nc2cc(C(N)=O)cc(OC)c2n1C/C=C/Cn1c(NC(=O)c2oc(C)nc2CC)nc2cc(C(N)=O)cc(OCCCO)c21` reads 0.001 µM; that for `CCc1nn(C)cc1C(=O)Nc1nc2cc(C(N)=O)cc(OC)c2n1C/C=C/Cn1c(NC(=O)c2cn(C)nc2CC)nc2cc(C(N)=O)cc(OCCCO)c21`, 5 µM.
For `CCc1nc(C)sc1C(=O)Nc1nc2cc(C(N)=O)cc(OCCCO)c2n1C/C=C/Cn1c(NC(=O)c2cc(C)nn2CC)nc2cc(C(N)=O)cc(OC)c21`, the EC50 was found to be 0.02 µM.
The result for `CCc1nc(C)oc1C(=O)Nc1nc2cc(C(N)=O)cc(OCCCO)c2n1C/C=C/Cn1/c(=N/C(=O)c2cc(C)nn2CC)sc2cc(C(N)=O)cc(OC)c21` reads 0.02 µM; that for `CCc1nc(C)oc1C(=O)/N=c1\sc2cc(C(N)=O)cc(OC)c2n1C/C=C/Cn1c(NC(=O)c2oc(C)nc2CC)nc2cc(C(N)=O)cc(OCCCO)c21`, 0.06 µM.
The result for `CCc1nc(C)oc1C(=O)Nc1nc2cc(C(N)=O)cc(OC)c2n1C/C=C/Cn1c(NC(=O)c2cnc(C)o2)nc2cc(C(N)=O)cc(OCCCO)c21` reads greater than 100 µM; that for `CCc1nc(C)oc1C(=O)Nc1nc2cc(C(N)=O)cc(OCCCO)c2n1C/C=C/Cn1c(NC(=O)c2cc(C)nn2CC)nc2cc(C(N)=O)cnc21`, 0.004 µM; that for `COc1cc(C(N)=O)cc2nc(NC(=O)c3cnc(C)o3)n(C/C=C/Cn3c(NC(=O)c4cnc(C)o4)nc4cc(C(N)=O)cc(OCCCO)c43)c12`, greater than 100 µM.
Next, `CCn1nc(C)cc1C(=O)Nc1nc2cc(C(N)=O)cc(OC)c2n1C/C=C/Cn1c(NC(=O)c2cc(C)nn2CC)nc2cc(C(N)=O)cc(OCCCO)c21`: 0.001 µM.
For the compound `CCc1nc(C)oc1C(=O)Nc1nc2cc(C(N)=O)cnc2n1C/C=C/Cn1c(NC(=O)c2oc(C)nc2CC)nc2cc(C(N)=O)cc(OCCCO)c21`, the EC50 stood at 0.007 µM.
As to `CCn1nc(C)cc1C(=O)Nc1nc2cc(C(N)=O)cc(OC)c2n1C/C=C/Cn1c(NC(=O)c2cc(C)nn2CC)nc2cc(C(N)=O)cc(OCCCC(=O)O)c21`, the EC50 came to 0.018 µM.
The result for `CCc1nc(C)oc1C(=O)/N=c1\sc2cc(C(N)=O)cnc2n1C/C=C/Cn1c(NC(=O)c2oc(C)nc2CC)nc2cc(C(N)=O)cc(OCCCO)c21` reads 0.09 µM; that for `CCc1nc(C)sc1C(=O)Nc1nc2cc(C(N)=O)cc(OC)c2n1C/C=C/Cn1c(NC(=O)c2sc(C)nc2CC)nc2cc(C(N)=O)cc(OCCCO)c21`, 0.27 µM; that for `CCc1nn(C)cc1C(=O)Nc1nc2cc(C(N)=O)cc(OCCCO)c2n1C/C=C/Cn1c(NC(=O)c2cc(C)nn2CC)nc2cc(C(N)=O)cc(OC)c21`, 0.02 µM.
On to `CCc1ncoc1C(=O)/N=c1\sc2cc(C(N)=O)cc(OC)c2n1C/C=C/Cn1c(NC(=O)c2ocnc2CC)nc2cc(C(N)=O)cc(OCCCO)c21`, for which the EC50 is greater than 100 µM.
The result for `CCn1nc(C)cc1C(=O)Nc1nc2cc(C(N)=O)cnc2n1C/C=C/Cn1c(NC(=O)c2oc(C)nc2C)nc2cc(C(N)=O)cc(OCCCO)c21` reads 3.2 µM.
